# In PubChem BioAssay (NCI):
#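 Cells were grown in 96-well plates and exposed to each compound for 48 hours at five concentrations; endpoints were interpolated linearly between bracketing concentrations, or set to the highest concentration if not reached. The concentration for 50% growth inhibition is given as GI50. TGI marks complete inhibition of growth.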
# Columns and labels:
# Assay in all cases: growth of human tumour cells (NCI), 48 h
# BT-549 breast = test system: BT-549 breast
# PC-3 prostate = test system: PC-3 prostate
# UACC-257 melanoma = test system: UACC-257 melanoma
# HCC-2998 colon = test system: HCC-2998 colon
# NCI-H23 lung = test system: NCI-H23 lung
# HS 578T breast = test system: HS 578T breast
# LOX IMVI melanoma = test system: LOX IMVI melanoma
# OVCAR-3 ovarian = test system: OVCAR-3 ovarian
# UACC-62 melanoma = test system: UACC-62 melanoma
# CAKI-1 renal = test system: CAKI-1 renal
# OVCAR-5 ovarian = test system: OVCAR-5 ovarian
# SK-MEL-2 melanoma = test system: SK-MEL-2 melanoma
# HCT-15 colon = test system: HCT-15 colon
# HOP-92 NSCLC = test system: HOP-92 NSCLC
# MDA-MB-231 breast = test system: MDA-MB-231 breast
# MALME-3M melanoma = test system: MALME-3M melanoma
# UO-31 renal = test system: UO-31 renal
# NCI-H226 lung = test system: NCI-H226 lung
# SF-539 CNS = test system: SF-539 CNS
# T-47D breast = test system: T-47D breast
# DU-145 prostate = test system: DU-145 prostate
# SN12C renal = test system: SN12C renal
# M14 melanoma = test system: M14 melanoma
# COLO 205 colon = test system: COLO 205 colon
# SK-OV-3 ovarian = test system: SK-OV-3 ovarian
# TK-10 renal = test system: TK-10 renal
# MDA-MB-435 = test system: MDA-MB-435
# CCRF-CEM leukemia = test system: CCRF-CEM leukemia
# 786-0 renal = test system: 786-0 renal
# HL-60(TB) leukemia = test system: HL-60(TB) leukemia
# SR leukemia = test system: SR leukemia
# OVCAR-4 ovarian = test system: OVCAR-4 ovarian
# KM12 colon = test system: KM12 colon
# MDA-MB-468 breast = test system: MDA-MB-468 breast
# ACHN renal = test system: ACHN renal
# OVCAR-8 ovarian = test system: OVCAR-8 ovarian
# NCI-H460 lung = test system: NCI-H460 lung
# SW-620 colon = test system: SW-620 colon
# HT29 colon = test system: HT29 colon
# SK-MEL-28 melanoma = test system: SK-MEL-28 melanoma
# IGROV1 ovarian = test system: IGROV1 ovarian
# SK-MEL-5 melanoma = test system: SK-MEL-5 melanoma
# RPMI-8226 leukemia = test system: RPMI-8226 leukemia
smiles,measurement,setting,value
CN(C)CCCNC(=S)Nc1ccc(/C=C/c2ccc(Cl)cc2)cc1,GI50,BT-549 breast,2890 nM
same,TGI,BT-549 breast,8870 nM
same,GI50,PC-3 prostate,1640 nM
same,TGI,PC-3 prostate,3240 nM
same,GI50,UACC-257 melanoma,1640 nM
same,TGI,UACC-257 melanoma,3240 nM
same,GI50,HCC-2998 colon,1640 nM
same,TGI,HCC-2998 colon,3140 nM
same,GI50,NCI-H23 lung,2020 nM
same,TGI,NCI-H23 lung,4440 nM
same,GI50,HS 578T breast,1860 nM
same,TGI,HS 578T breast,4520 nM
same,GI50,LOX IMVI melanoma,1640 nM
same,TGI,LOX IMVI melanoma,3090 nM
same,GI50,OVCAR-3 ovarian,1440 nM
same,TGI,OVCAR-3 ovarian,3110 nM
same,GI50,UACC-62 melanoma,1750 nM
same,TGI,UACC-62 melanoma,3170 nM
same,GI50,CAKI-1 renal,1540 nM
same,TGI,CAKI-1 renal,2960 nM
same,GI50,OVCAR-5 ovarian,1610 nM
same,TGI,OVCAR-5 ovarian,3090 nM
same,GI50,SK-MEL-2 melanoma,1870 nM
same,TGI,SK-MEL-2 melanoma,3570 nM
same,GI50,HCT-15 colon,1530 nM
same,TGI,HCT-15 colon,3030 nM
same,GI50,HOP-92 NSCLC,1350 nM
same,TGI,HOP-92 NSCLC,2990 nM
same,GI50,MDA-MB-231 breast,1620 nM
same,TGI,MDA-MB-231 breast,3030 nM
same,GI50,MALME-3M melanoma,1750 nM
same,TGI,MALME-3M melanoma,3140 nM
same,GI50,UO-31 renal,1580 nM
same,TGI,UO-31 renal,2940 nM
same,GI50,NCI-H226 lung,8410 nM
same,TGI,NCI-H226 lung,38200 nM
same,GI50,SF-539 CNS,1680 nM
same,TGI,SF-539 CNS,3050 nM
same,GI50,T-47D breast,1880 nM
same,TGI,T-47D breast,4100 nM
same,GI50,DU-145 prostate,1750 nM
same,TGI,DU-145 prostate,3330 nM
same,GI50,SN12C renal,1680 nM
same,TGI,SN12C renal,3130 nM
same,GI50,M14 melanoma,1770 nM
same,TGI,M14 melanoma,3620 nM
same,GI50,COLO 205 colon,1880 nM
same,TGI,COLO 205 colon,3640 nM
same,GI50,SK-OV-3 ovarian,2030 nM
same,TGI,SK-OV-3 ovarian,4160 nM
same,GI50,TK-10 renal,1870 nM
same,TGI,TK-10 renal,3560 nM
same,GI50,MDA-MB-435,1580 nM
same,TGI,MDA-MB-435,3060 nM
same,GI50,CCRF-CEM leukemia,1630 nM
same,TGI,CCRF-CEM leukemia,3430 nM
same,GI50,786-0 renal,1620 nM
same,TGI,786-0 renal,3360 nM
same,GI50,HL-60(TB) leukemia,1670 nM
same,TGI,HL-60(TB) leukemia,3930 nM
same,GI50,SR leukemia,1940 nM
same,TGI,SR leukemia,5100 nM
same,GI50,OVCAR-4 ovarian,1920 nM
same,TGI,OVCAR-4 ovarian,4350 nM
same,GI50,KM12 colon,1820 nM
same,TGI,KM12 colon,3400 nM
same,GI50,MDA-MB-468 breast,1640 nM
same,TGI,MDA-MB-468 breast,3070 nM
same,GI50,ACHN renal,1780 nM
same,TGI,ACHN renal,3190 nM
same,GI50,OVCAR-8 ovarian,1980 nM
same,TGI,OVCAR-8 ovarian,4100 nM
same,GI50,NCI-H460 lung,1540 nM
same,TGI,NCI-H460 lung,3010 nM
same,GI50,SW-620 colon,1670 nM
same,TGI,SW-620 colon,3140 nM
same,GI50,HT29 colon,2140 nM
same,TGI,HT29 colon,4720 nM
same,GI50,SK-MEL-28 melanoma,1790 nM
same,TGI,SK-MEL-28 melanoma,3200 nM
same,GI50,IGROV1 ovarian,1780 nM
same,TGI,IGROV1 ovarian,3310 nM
same,GI50,SK-MEL-5 melanoma,1720 nM
same,TGI,SK-MEL-5 melanoma,3090 nM
same,GI50,RPMI-8226 leukemia,2550 nM
same,TGI,RPMI-8226 leukemia,7330 nM
